Results from patent publication US20230099803A1, “OXAZOLIDINONE FOR TREATMENT OF INFECTIONS WITH MYCOBACTERIUM TUBERCULOSIS” (priority 2017, published 2023).
≈ marks a conversion by molar mass, not a printed value. Like-named read-outs stand apart in the source and are kept apart here.

What was measured:
[1] = system: Staphylococcus aureus methicillin-sensitive; experiment: MIC90 broth microdilution; assay type: cell-based; details: ATCC29213, ATCC 29213, 35° C., 18 hours
Enterococcus faecalis [2] = experiment: MIC90 broth microdilution; assay type: cell-based; details: ATCC19433, ATCC 19433, 35° C., 18 hours
[3] = system: Mycobacterium tuberculosis; details: values marked with literature reference (^4,11 or ^15), cited from earlier work
[4] = system: Acinetobacter baumannii 6M-1b; experiment: MIC90 broth microdilution; assay type: cell-based; details: 6M1B, environmental strain 6M-1b, 35° C., 18 hours
[5] = system: Acinetobacter baumannii ATCC 19606; experiment: MIC90 broth microdilution; assay type: cell-based; details: ATCC19606, strain ATCC 19606, 35° C., 18 hours
[6] = system: Acinetobacter baumannii ACBA; experiment: MIC90 broth microdilution; assay type: cell-based; details: patient isolate ACBA, 35° C., 18 hours
Enterobacter cloacae = experiment: MIC90 broth microdilution; assay type: cell-based; details: for MIC90: Enterobacter cloacae, ATCC13047, ATCC 13047, 35° C., 18 hours
Klebsiella pneumoniae = experiment: MIC90 broth microdilution; assay type: cell-based; details: for MIC90: Klebsiella pneumoniae, ATCC35657, ATCC 35657, 35° C., 18 hours
Pseudomonas aeruginosa = experiment: MIC90 broth microdilution; assay type: cell-based; details: for MIC90: Pseudomonas aeruginosa, PA14, 35° C., 18 hours
Staphylococcus aureus [7] = details: general statement on linezolid; cited from earlier work
Mycobacterium abscessus = experiment: MIC90 broth microdilution; assay type: cell-based; details: for MIC90: Mycobacteroides abscessus, ATCC19977, 72 h, ATCC 19977, 30° C., 3 days
Mycobacterium avium = experiment: MIC90 broth microdilution; assay type: cell-based; details: for MIC90: Mycobacterium avium, 168 h, strain 104, seven days at 37° C.
[8] = system: Mycobacterium tuberculosis; experiment: MIC90 broth macrodilution; details: H37Rv; 7H9 broth, fourteen days at 37° C.
[9] = system: methicillin-resistant Staphylococcus aureus ATCC 43300; experiment: MIC90 determination; assay type: cell-based; details: ATCC43300, methicillin-resistant strain ATCC 43300
[10] = system: Mycobacterium tuberculosis; experiment: Minimum bactericidal concentration (MBC99.9); assay type: cell-based
Enterococcus faecalis [11] = experiment: Minimum bactericidal concentration (MBC99.9); assay type: cell-based; details: up to 8 times MIC90
Staphylococcus aureus [12] = experiment: Minimum bactericidal concentration (MBC99.9); assay type: cell-based; details: up to 8 times MIC90
Enterococcus faecalis [13] = experiment: Checkerboard titration assay; assay type: cell-based; details: T145 combined with doripenem, biapenem, faropenem and tebipenem; 1x to 1/16x MIC90
[14] = system: methicillin-sensitive Staphylococcus aureus; experiment: Checkerboard titration assay; assay type: cell-based; details: T145 combined with doripenem, biapenem, faropenem and tebipenem; 1x to 1/16x MIC90
[15] = system: methicillin-resistant Staphylococcus aureus; experiment: Checkerboard titration assay; assay type: cell-based; details: T145 combined with doripenem, biapenem, faropenem and tebipenem; 1x to 1/16x MIC90
[16] = system: Mycobacterium tuberculosis; experiment: Checkerboard titration assay; assay type: cell-based; details: T145 combined with isoniazid or rifampicin
From the text: The inventors also evaluated if any drug-drug interaction existed between T145 and isoniazid or rifampicin, two drugs that comprise the backbone of tuberculosis treatment today, against Mycobacterium tuberculosis using the checkerboard assay as described above. Any antagonism or synergy between T145 and isoniazid or rifampicin is not observed, and therefore that activity of T145 against Mycobacterium tuberculosis is indifferent to that of isoniazid or rifampicin.
This assay is a modification of the broth dilution assay and was carried out as described. In summary, each well containing 10^5 CFU received two drugs each in two fold dilutions below their respective MIC90. The suspensions are incubated at 37° C. and growth was evaluated as described above. Fractional Inhibitory Concentration (FIC) of a drug in a combination that inhibits bacterial growth is the concentration of the drug in the well divided by MIC90 of the drug if used alone. The sum of FIC of each drug in the combination is the FIC index. In each well where bacterial growth was absent, FIC index was calculated and an average FIC index was determined. Drug-drug antagonism was inferred if average FIC index is >2, indifference if 0.5-2.0 and synergy if ≤ 0.5.

Enterococcus faecalis [17] = system: Enterococcus faecalis
Staphylococcus aureus [18] = system: Staphylococcus aureus
[19] = Acinetobacter baumannii, read-out: MIC90

C[C@@H](O)[C@H]1C(=O)N2C(C(=O)[O-])=C(SC3Cn4cnc[n+]4C3)[C@H](C)[C@H]12 (stereo partly shown) [Biapenem]
MIC90 [1]: 0.007 to 0.015 µg/mL (≈ 0.02 to 0.0428 µM) | MIC90 (Enterococcus faecalis [2]): 0.25 to 0.5 µg/mL (≈ 0.713 to 1.43 µM) | MIC90 [3]: 2.5-5.0 ^15 µg/ml

C[C@@H](O)[C@H]1C(=O)N2C(C(=O)O)=C(S[C@@H]3CN[C@H](CNS(N)(=O)=O)C3)[C@H](C)[C@H]12 [Doripenem]
MIC90 [1]: 0.003 to 0.007 µg/mL (≈ 0.00713 to 0.0166 µM) | MIC90 (Enterococcus faecalis [2]): 0.25 to 0.5 µg/mL (≈ 0.595 to 1.19 µM) | MIC90 [3]: 2.5-5.0 ^15 µg/ml

C[C@@H](O)[C@H]1C(=O)N2C(C(=O)O)=C([C@H]3CCCO3)S[C@H]12 [Faropenem]
MIC90 [1]: 0.015 to 0.03 µg/mL (≈ 0.0526 to 0.105 µM) | MIC90 (Enterococcus faecalis [2]): 0.25 to 0.5 µg/mL (≈ 0.876 to 1.75 µM) | MIC90 [3]: 2.5-5.0 ^15 µg/ml

CC(=O)NC[C@H]1CN(c2ccc(N3CCOCC3)c(F)c2)C(=O)O1 [Linezolid]
MIC90 [4]: 0.25 to 0.5 µg/mL (≈ 0.741 to 1.48 µM) | MIC90 [5]: > 64 µg/mL | MIC90 [6, 19]: > 64 µg/mL | MIC90 [6]: >64 µg/mL | MIC90 (Enterobacter cloacae): > 64 µg/mL | MIC90 (Klebsiella pneumoniae): 16 to 32 µg/mL (≈ 47.4 to 94.9 µM) | MIC90 (Pseudomonas aeruginosa): > 64 µg/mL | MIC90 [1]: 1 to 2 µg/mL (≈ 2.96 to 5.93 µM) | MIC90 (Enterococcus faecalis [2]): 1 to 2 µg/mL (≈ 2.96 to 5.93 µM) | MIC90 [3]: 0.2-2.0 ^4,11 µg/ml | MIC90 ([3]; listed as linezolid): 0.5 to 2.0 µg/mL | bactericidal or bacteriostatic activity (Staphylococcus aureus [7]): bacteriostatic

C[C@@H](O)[C@H]1C(=O)N2C(C(=O)O)=C(S[C@@H]3CN[C@H](C(=O)N(C)C)C3)[C@H](C)[C@H]12 [Meropenem]
MIC90 [4]: 1 to 2 µg/mL (≈ 2.61 to 5.22 µM) | MIC90 [5]: > 64 µg/mL | MIC90 [6, 19]: > 64 µg/mL | MIC90 [6]: >64 µg/mL | MIC90 (Enterobacter cloacae): 0.13 to 0.25 µg/mL (≈ 0.339 to 0.652 µM) | MIC90 (Klebsiella pneumoniae): < 0.06 µg/mL | MIC90 (Pseudomonas aeruginosa): 0.25 to 0.5 µg/mL (≈ 0.652 to 1.3 µM) | MIC90 [1]: 0.06 to 0.13 µg/mL (≈ 0.156 to 0.339 µM) | MIC90 (Enterococcus faecalis [2]): 4 to 8 µg/mL (≈ 10.4 to 20.9 µM) | MIC90 (Mycobacterium abscessus): > 64 µg/mL | MIC90 (Mycobacterium avium): > 64 µg/mL | MIC90 [8]: 4 to 8 µg/mL

CC(=O)NC[C@H]1CN(c2ccc3c(c2)Oc2ccccc2O3)C(=O)O1 [T145, N-(((S)-3-(dibenzo[b,e][1,4]dioxin-7-yl)-2-oxooxazolidin-5-yl)methyl)acetamide]
MIC90 [4]: 0.25 to 0.5 µg/mL (≈ 0.735 to 1.47 µM) | MIC90 [5]: 32 to 64 µg/mL (≈ 94 to 188 µM) | MIC90 [6, 19]: > 64 µg/mL | MIC90 [6]: >64 µg/mL | antimicrobial activity (in words) (Enterobacter cloacae): no activity | MIC90 (Enterobacter cloacae): > 64 µg/mL | antimicrobial activity (in words) (Klebsiella pneumoniae): no activity | MIC90 (Klebsiella pneumoniae): > 64 µg/mL | antimicrobial activity (in words) (Pseudomonas aeruginosa): no activity | MIC90 (Pseudomonas aeruginosa): > 64 µg/mL | MIC90 [1]: 0.5 to 1 µg/mL (≈ 1.47 to 2.94 µM) | MIC90 (Enterococcus faecalis [2]): 0.25 to 0.5 µg/mL (≈ 0.735 to 1.47 µM) | antimicrobial activity (in words) (Mycobacterium abscessus): no activity | MIC90 (Mycobacterium abscessus): > 64 µg/mL | antimicrobial activity (in words) (Mycobacterium avium): no activity | MIC90 (Mycobacterium avium): > 64 µg/mL | MIC90 [9]: 0.5 to 1 µg/mL (≈ 1.47 to 2.94 µM) | bactericidal or bacteriostatic activity ([10]; 1, 2, 4 and 8 times MIC90): bactericidal | MBC ([10]; Mycobacterium tuberculosis, concentration at which 99.9% of bacilli are killed): 2 µg/mL (≈ 5.88 µM) | bactericidal or bacteriostatic activity (Enterococcus faecalis [11]): bacteriostatic | bactericidal or bacteriostatic activity (Staphylococcus aureus [12]): bacteriostatic | drug-drug interaction (synergy, indifference or antagonism) (Enterococcus faecalis [13]): indifferent | drug-drug interaction (synergy, indifference or antagonism) [14]: indifferent | drug-drug interaction (synergy, indifference or antagonism) [15]: indifferent | drug-drug interaction (synergy, indifference or antagonism) [16]: indifferent | selection of spontaneous resistant mutants (Enterococcus faecalis [17]): did not form classical distinct single colonies | selection of spontaneous resistant mutants (Staphylococcus aureus [18]): did not form classical distinct single colonies | MIC90 [8]: 0.5 to 1.0 µg/mL

C[C@@H](O)[C@H]1C(=O)N2C(C(=O)O)=C(SC3CN(C4=NCCS4)C3)[C@H](C)[C@H]12 [Tebipenem]
MIC90 [1]: 0.03 to 0.06 µg/mL (≈ 0.0782 to 0.156 µM) | MIC90 (Enterococcus faecalis [2]): 0.25 to 0.5 µg/mL (≈ 0.652 to 1.3 µM) | MIC90 [3]: 1.25-2.5 ^15 µg/ml
